# Results published in patent publication US6686355B2, “Biphenyl sulfonamides useful as matrix metalloproteinase inhibitors” (Warner-Lambert Company, priority 2001, dated 2004).
# Experiments:
# Format in all cases: biochemical
# [1] = molecular target: T1, MMP-2FL (full length Gelatinase A) (Homo sapiens, UniProt P08253); experiment: Thiopeptolide hydrolysis assay, MMP-2FL; conditions: thiopeptolide substrate, HEPES pH 7.0, 22° C.
# T1 sequence (P08253 110-660): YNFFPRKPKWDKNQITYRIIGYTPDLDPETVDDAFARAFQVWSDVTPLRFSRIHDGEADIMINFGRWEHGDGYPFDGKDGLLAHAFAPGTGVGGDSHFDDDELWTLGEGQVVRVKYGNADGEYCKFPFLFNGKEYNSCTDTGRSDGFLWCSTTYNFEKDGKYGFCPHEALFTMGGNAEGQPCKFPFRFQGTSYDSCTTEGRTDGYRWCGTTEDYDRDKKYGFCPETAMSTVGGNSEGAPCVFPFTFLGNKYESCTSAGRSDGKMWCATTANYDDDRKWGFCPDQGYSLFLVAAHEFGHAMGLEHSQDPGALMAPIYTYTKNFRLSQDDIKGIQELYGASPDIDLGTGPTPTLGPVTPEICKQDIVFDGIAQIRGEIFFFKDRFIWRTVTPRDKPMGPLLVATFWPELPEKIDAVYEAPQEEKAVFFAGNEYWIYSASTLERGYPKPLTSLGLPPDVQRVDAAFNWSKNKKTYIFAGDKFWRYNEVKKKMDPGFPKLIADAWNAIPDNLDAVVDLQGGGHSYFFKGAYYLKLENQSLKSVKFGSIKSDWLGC
# Text: (§1) The assays measure the amount by which a test compound reduces the hydrolysis of a thiopeptolide substrate catalyzed by a matrix metalloproteinase enzyme. Such assays are described in detail by Ye et al., in Biochemistry, 1992;31(45):11231-11235, which is incorporated herein by reference.
# (§2) Thiopeptolide substrates show virtually no decomposition or hydrolysis at or below neutral pH in the absence of a matrix metalloproteinase enzyme. A typical thiopeptolide substrate commonly utilized for assays is Ac-Pro-Leu-Gly-thioester-Leu-Leu-Gly-OEt. A 100 μL assay mixture will contain 50 mM of N-2-hydroxyethylpiperazine-N′-2-ethanesulfonic acid buffer (“HEPES”) at pH 7.0, 10 mM CaCl2, 100 μM thiopeptolide substrate, and 1 mM 5,5″-dithio-bis-(2-nitro-benzoic acid) (DTNB). The thiopeptolide substrate concentration may be varied from, for example, 10 to 800 μM to obtain Km and Kcat values. The change in absorbance at 405 nm is monitored on a Thermo Max microplate reader (Molecular Devices, Menlo Park, Calif.) at room temperature (22° C.). The calculation of the amount of hydrolysis of the thiopeptolide substrate is based on E412=13600 M^−1 cm^−1 for the DTNB-derived product 3-carboxy4-nitrothiophenoxide. Assays are carried out with and without matrix metalloproteinase inhibitor compounds, and the amount of hydrolysis is compared for a determination of inhibitory activity of the test compounds.
# (§3) Several representative compounds have been evaluated for their ability to inhibit various matrix metalloproteinase enzymes. In Table I, MMP-1FL refers to full length interstitial collagenase; MMP-2FL refers to full length Gelatinase A; MMP-3CD refers to the catalytic domain of stromelysin-1; MMP-7FL refers to full length matrilysin; MMP-9FL refers to full length Gelatinase B; MMP-13CD refers to the catalytic domain of collagenase 3; and MMP-14CD refers to the catalytic domain of MMP-14. Test compounds were evaluated at various concentrations in order to determine their respective IC50 values, the micromolar concentration of compound required to cause a 50% inhibition of the catalytic activity of the respective enzyme.
# [2] = molecular target: T2, MMP-1FL (full length interstitial collagenase) (Homo sapiens, UniProt P03956); experiment: Thiopeptolide hydrolysis assay, MMP-1FL; conditions: thiopeptolide substrate, HEPES pH 7.0, 22° C.
# T2 sequence (P03956 100-469): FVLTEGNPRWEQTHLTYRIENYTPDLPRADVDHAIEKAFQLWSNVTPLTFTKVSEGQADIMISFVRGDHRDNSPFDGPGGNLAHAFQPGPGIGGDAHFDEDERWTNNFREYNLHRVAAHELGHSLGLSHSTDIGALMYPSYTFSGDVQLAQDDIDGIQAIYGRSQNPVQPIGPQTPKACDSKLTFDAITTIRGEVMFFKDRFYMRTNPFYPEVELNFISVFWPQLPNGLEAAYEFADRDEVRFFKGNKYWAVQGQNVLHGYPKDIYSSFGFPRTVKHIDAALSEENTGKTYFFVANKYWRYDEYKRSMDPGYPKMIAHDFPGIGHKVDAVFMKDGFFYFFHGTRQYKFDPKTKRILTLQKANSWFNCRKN
# Text: as §1, §2, §3
# [3] = molecular target: MMP-14CD (catalytic domain of MMP-14) (Homo sapiens, UniProt P50281); experiment: Thiopeptolide hydrolysis assay, MMP-14CD; conditions: thiopeptolide substrate, HEPES pH 7.0, 22° C.
# Text: as §1, §2, §3
# [4] = molecular target: T3, MMP-7FL (full length matrilysin) (Homo sapiens, UniProt P09237); experiment: Thiopeptolide hydrolysis assay, MMP-7FL; conditions: thiopeptolide substrate, HEPES pH 7.0, 22° C.
# T3 sequence (P09237 95-267): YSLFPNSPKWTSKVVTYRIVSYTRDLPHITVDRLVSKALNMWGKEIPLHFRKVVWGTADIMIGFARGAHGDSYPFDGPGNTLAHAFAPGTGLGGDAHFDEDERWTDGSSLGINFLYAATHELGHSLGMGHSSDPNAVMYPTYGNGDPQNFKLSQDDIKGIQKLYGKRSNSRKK
# Text: as §1, §2, §3
# [5] = molecular target: MMP-3CD (catalytic domain of stromelysin-1) (Homo sapiens, UniProt P08254); experiment: Thiopeptolide hydrolysis assay, MMP-3CD; conditions: thiopeptolide substrate, MES pH 6.0
# Text: as §1, §2, §3
# It should be appreciated that the assay buffer used with MMP-3CD was 50 mM of 2-morpholinoethanesulfonic acid monohydrate (“MES”) at pH 6.0 rather than the HEPES buffer at pH 7.0 described above.
# [6] = molecular target: MMP-13CD (catalytic domain of collagenase 3) (Homo sapiens, UniProt P45452); experiment: Thiopeptolide hydrolysis assay, MMP-13CD; conditions: thiopeptolide substrate, HEPES pH 7.0, 22° C.
# Text: as §1, §2, §3
# [7] = molecular target: MMP-9FL (full length Gelatinase B) (Homo sapiens, UniProt P14780); experiment: Thiopeptolide hydrolysis assay, MMP-9FL; conditions: thiopeptolide substrate, HEPES pH 7.0, 22° C.
# Text: as §1, §2, §3
# MMP-12CD = molecular target: T4, MMP-12CD (Homo sapiens, UniProt P39900); experiment: Thiopeptolide hydrolysis assay, MMP-12CD; conditions: thiopeptolide substrate, HEPES pH 7.0, 22° C.
# T4 construct: MMP-12CD
# Text: as §1, §2, §3
# Chain of MMP-3CD (catalytic domain of stromelysin-1) (P08254 100-272 limits assumed): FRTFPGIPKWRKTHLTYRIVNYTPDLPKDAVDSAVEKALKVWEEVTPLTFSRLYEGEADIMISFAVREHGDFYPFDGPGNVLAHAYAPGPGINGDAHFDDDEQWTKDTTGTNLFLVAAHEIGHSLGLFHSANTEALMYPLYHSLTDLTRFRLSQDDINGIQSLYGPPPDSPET
# Chain of MMP-9FL (full length Gelatinase B) (P14780 94-707, species assumed): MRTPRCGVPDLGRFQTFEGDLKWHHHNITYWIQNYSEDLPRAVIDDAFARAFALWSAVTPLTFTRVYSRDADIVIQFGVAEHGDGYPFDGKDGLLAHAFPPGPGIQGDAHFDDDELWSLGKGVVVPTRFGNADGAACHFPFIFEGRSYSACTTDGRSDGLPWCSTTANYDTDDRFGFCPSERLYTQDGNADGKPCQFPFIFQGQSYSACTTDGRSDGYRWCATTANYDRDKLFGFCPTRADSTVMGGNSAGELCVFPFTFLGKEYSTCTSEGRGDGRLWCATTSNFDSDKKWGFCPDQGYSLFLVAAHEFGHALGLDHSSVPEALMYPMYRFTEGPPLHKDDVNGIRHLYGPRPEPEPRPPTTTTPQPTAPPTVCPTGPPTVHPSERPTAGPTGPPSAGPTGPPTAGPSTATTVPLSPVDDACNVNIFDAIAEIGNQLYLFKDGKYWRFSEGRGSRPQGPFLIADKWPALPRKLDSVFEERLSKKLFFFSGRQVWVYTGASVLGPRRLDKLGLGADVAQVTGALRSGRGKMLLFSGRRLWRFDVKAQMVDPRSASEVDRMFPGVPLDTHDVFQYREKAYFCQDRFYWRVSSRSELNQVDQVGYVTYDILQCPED
# T4 sequence (P39900 106-263 limits assumed): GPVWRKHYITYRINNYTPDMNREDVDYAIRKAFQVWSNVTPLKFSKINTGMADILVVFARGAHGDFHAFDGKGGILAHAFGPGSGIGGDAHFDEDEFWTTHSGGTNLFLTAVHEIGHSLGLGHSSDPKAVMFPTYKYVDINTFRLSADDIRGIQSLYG
SMILES,IC50 [1] [µM],IC50 [2] [µM],IC50 [3] [µM],IC50 [4] [µM],IC50 [5] [µM],IC50 [6] [µM],IC50 [7] [µM],IC50 (MMP-12CD) [µM]
"CC1(C)[C@H](C(=O)O)N(S(=O)(=O)c2ccc(-c3ccc(Br)cc3)cc2)CCS1(=O)=O [Example 3, (S)-4-(4′-Bromo-biphenyl-4-sulfonyl)-2,2-dimethyl-1,1-dioxo-thiomorpholine-3-carboxylic acid]",0.012,1.7,0.059,8.8,0.005,0.032,0.78,
"CC1(C)SCCN(S(=O)(=O)c2ccc(-c3ccc(CO)cc3)cc2)[C@H]1C(=O)O [Example 5, (S)-4-(4′-Hydroxymethyl-biphenyl-4-sulfonyl)-2,2-dimethyl-thiomorpholine-3-carboxylic acid]",0.018,1.5,0.24,10,0.027,0.047,0.063,
"CC1(C)SCCN(S(=O)(=O)c2ccc(-c3ccc(F)cc3F)cc2)[C@H]1C(=O)O [Example 39, (S)-4-(2′,4′-Difluoro-biphenyl-4-sulfonyl)-2,2-dimethyl-thiomorpholine-3-carboxylic acid]",0.115,3.25,0.67,25,0.0285,0.16,2.78,0.013
"CC1(C)SCCN(S(=O)(=O)c2ccc(-c3ccc(Oc4ccccc4)cc3)cc2)[C@H]1C(=O)O [Example 40, (S)-2,2-Dimethyl-4-(4′-phenoxy-biphenyl-4-sulfonyl)-thiomorpholine-3-carboxylic acid]",0.17,,1.5,13,0.0094,0.1,2.2,0.004
"COc1ccc(-c2ccc(S(=O)(=O)N3CCSC(C)(C)[C@@H]3C(=O)O)cc2)cc1C=O [Example 48, (S)-4-(3′-Formyl-4′-methoxy-biphenyl-4-sulfonyl)-2,2-dimethyl-thiomorpholine-3-carboxylic acid]",1.55,,0.037,,0.775,2.04,25.8,
CN(C)c1ccc(-c2ccc(S(=O)(=O)N3CCSC(C)(C)[C@@H]3C(=O)O)cc2)cc1 [Example 54],0.024,11.3,0.19,,0.03,0.013,0.17,0.0103
"CC1(C)SCCN(S(=O)(=O)c2ccc(-c3cccc(OC(F)(F)F)c3)cc2)[C@H]1C(=O)O [Example 59, (S)-2,2-Dimethyl-4-(3′-trifluoromethoxy-biphenyl-4-sulfonyl)-thiomorpholine-3-carboxylic acid]",5.2,,,,1.1,5.3,30,
"CC(=O)c1cccc(-c2ccc(S(=O)(=O)N3CCSC(C)(C)[C@@H]3C(=O)O)cc2)c1 [Example 61, (S)-4-(3′-Acetyl-biphenyl-4-sulfonyl)-2,2-dimethyl-thiomorpholine-3-carboxylic acid]",3.4,,,,0.763,2.9,49,

# These reach a lower IC50 [1]. Values come first.
IC50 [1] [µM],IC50 [2] [µM],IC50 [3] [µM],IC50 [4] [µM],IC50 [5] [µM],IC50 [6] [µM],IC50 [7] [µM],IC50 (MMP-12CD) [µM],SMILES
0.006,3.1,0.048,10,0.003,0.016,0.26,,"CC1(C)SCCN(S(=O)(=O)c2ccc(-c3ccc(Br)cc3)cc2)[C@H]1C(=O)O [Example 1, (S)-4-(4′-Bromo-biphenyl-4-sulfonyl)-2,2-dimethyl-thiomorpholine-3-carboxylic acid]"
0.002,0.002,0.001,0.037,0.002,0.001,0.001,,"CC1(C)SCCN(S(=O)(=O)c2ccc(-c3ccc(Br)cc3)cc2)[C@H]1C(=O)NO [Example 2, (S)-4-(4′-Bromo-biphenyl-4-sulfonyl)-2,2-dimethyl-thiomorpholine-3-carboxylic acid hydroxyamide]"
0.001,0.005,0.002,0.031,0.003,0.001,0.004,,"CC1(C)[C@H](C(=O)NO)N(S(=O)(=O)c2ccc(-c3ccc(Br)cc3)cc2)CCS1(=O)=O [Example 4, (S)-4-(4′-Bromo-biphenyl-4-sulfonyl)-2,2-dimethyl-1,1-dioxo-thiomorpholine-3-carboxylic acid hydroxyamide]"
0.00635,10.8,0.0567,31.7,0.0104,0.0108,0.13,0.00113,"CC1(C)SCCN(S(=O)(=O)c2ccc(-c3ccc4ccccc4c3)cc2)[C@H]1C(=O)O [Example 36, (S)-2,2-Dimethyl-4-(4-naphthalen-2-yl-benzenesulfonyl)-thiomorpholine-3-carboxylic acid]"
0.00135,1.17,0.0343,2.67,0.00295,0.00145,0.0032,0.001,"CC1(C)SCCN(S(=O)(=O)c2ccc(-c3ccc(-c4ccccc4)cc3)cc2)[C@H]1C(=O)O [Example 38, (S)-2,2-Dimethyl-4-([1,1′;4′,1″]terphenyl-4-sulfonyl)-thiomorpholine-3-carboxylic acid]"
0.0027,5.75,0.128,,0.004,,0.098,0.001,"CC1(C)SCCN(S(=O)(=O)c2ccc(-c3ccc(OC(F)(F)F)cc3)cc2)[C@H]1C(=O)O [Example 45, (S)-2,2-Dimethyl-4-(4′-trifluoromethoxy-biphenyl-4-sulfonyl)-thiomorpholine-3-carboxylic acid]"
0.0061,5.4,,9,0.0074,0.01,0.14,0.00125,"CCc1ccc(-c2ccc(S(=O)(=O)N3CCSC(C)(C)[C@@H]3C(=O)O)cc2)cc1 [Example 47, (S)-4-(4′-Ethyl-biphenyl-4-sulfonyl)-2,2-dimethyl-thiomorpholine-3-carboxylic acid]"
